Laboratory results from PMC7036871, “Identification and Characterization of pantocin wh-1, a Novel Cyclic Polypeptide Produced by Pantoea dispersa W18” (Molecules, 2020).
Where a SMILES comes first, the peptide text is derived from it.

Legend:
[1] = system: M. smegmatis mc^2 155; experiment: Antibacterial activity, microscale optical density assay (MODA) / microporous dilution; assay type: cell-based, Mycobacterium smegmatis; design: key: -: no inhibitory activity; +: Inhibit the growth of less than 10% amount of the initial bacteria; ++: Inhibit the growth of less than 50% amount of the initial bacteria; +++: Inhibit the growth of initial bacteria completely; details: M. smegmatis mc2155, medium 7H9
Experimental: (§1) In this paper, the microporous dilution method was used to detect the antibacterial spectrum of pantocin wh-1 against Gram-negative and -positive bacteria. […] The time kill studies were determined over 8 h with M. smegmatis mc^2 155 being exposed to 0.5, 1, 2, or 4 × MIC of pantocin wh-1. […] At 2 × MIC and 4 × MIC, pantocin wh-1 caused bacterial eradication was completed approximately after 4 h.
(§2) The antibacterial activity of the pantocin wh-1 was detected by the microscale optical density assay (MODA) method. Briefly, 90 μL of the dilutions of pantocin wh-1, 100 μL 2 × 7H9 medium, and 10 μL of a log phase indicator strain were co-incubated in the 96-well plate at 37 °C for 48 h. For control groups, 90 μL of the dilutions of pantocin wh-1 were replaced by an equal volume of sterile water. After incubation, the 96 well microplate was measured by a microplate reader at a 600 nm wavelength (Biotek synergyH1, Biotek, Winooski, VT, USA). The amount of pantocin wh-1 produced by P. dispersa W18 was determined using two fold dilutions. […] The results were expressed in AU/mL. The MIC was defined as the last dilution of pantocin wh-1 sufficient to prevent indicator strain growth in vitro.

[2] = system: autoluminescent H37Ra (UAlRa); design: species or system BALB/c female mice; details: mouse, in vivo
[3] = biological target: proteinase K (Parengyodontium album, UniProt P06873); experiment: Effect of enzymes on antibacterial activity: proteinase K; assay type: in vitro ADME
Source text: (§3) Furthermore, the antibacterial activity of pantocin wh-1 also retained nearly 100% of the initial activity within a broad pH range (pH 2–12).
(§4) The effect of various enzymes, pH, and temperature on pantocin wh-1 activity was detected as described by J.-M. Chobert et al. with a slight modification. Proteinase K, trypsin, catalase, lysozyme, DNAse, and RNAse were used to test the antibacterial activity of pantocinwh-1. To analyze the effect of different pH values on the antibacterial activity of pantocin wh-1, the sample of pantocin wh-1 was exposed to buffer with a pH value of 2–12 for 1 h at 25 °C. The effect of temperature on the anti-mycobacterial activity of pantocin wh-1 was determined by incubating pantocin wh-1 at 50 °C and 100 °C for 60 min, as well as at 121 °C for 15 min, and then detecting the bactericidal activity against M. smegmatis mc^2 155.

[4] = system: lysozyme; experiment: Effect of enzymes on antibacterial activity: lysozyme; assay type: in vitro ADME
Source text: as §3, §4

[5] = system: DNase; experiment: Effect of enzymes on antibacterial activity: DNase; assay type: in vitro ADME
Source text: as §3, §4

[6] = biological target: RNase (Bos taurus, UniProt P61823); experiment: Effect of enzymes on antibacterial activity: RNase; assay type: in vitro ADME
Source text: as §3, §4

[7] = Effect of heat on antibacterial activity; assay type: physicochemical; details: for Residual activity: compared with antimicrobial activity before the treatment
Source text: as §3
as §4, with “[…],” for “anti-mycobacterial activity of pantocin wh-1 was determined by incubating pantocin wh-1 at 50 °C and 100 °C for 60 min,”

[8] = system: S. aureus N315; experiment: Antimicrobial spectrum, microporous dilution method; assay type: cell-based; design: key: -: no inhibitory activity; +: Inhibit the growth of less than 10% amount of the initial bacteria; ++: Inhibit the growth of less than 50% amount of the initial bacteria; +++: Inhibit the growth of initial bacteria completely; details: S. aureus N315, medium LB
[9] = system: Feces Enterococcus; experiment: as above; assay type: cell-based; design: key: -: no inhibitory activity; +: Inhibit the growth of less than 10% amount of the initial bacteria; ++: Inhibit the growth of less than 50% amount of the initial bacteria; +++: Inhibit the growth of initial bacteria completely; details: medium BHI
Experimental: as §1, §2

[10] = system: S. pyogenes; experiment: as above; assay type: cell-based; design: key: -: no inhibitory activity; +: Inhibit the growth of less than 10% amount of the initial bacteria; ++: Inhibit the growth of less than 50% amount of the initial bacteria; +++: Inhibit the growth of initial bacteria completely; details: medium BHI
Experimental: as §1, §2

[11] = system: S. suis; experiment: as above; assay type: cell-based, Streptococcus suis
Experimental: as §1, §2

[12] = system: M. bovis BCG; assay type: cell-based; design: key: -: no inhibitory activity; +: Inhibit the growth of less than 10% amount of the initial bacteria; ++: Inhibit the growth of less than 50% amount of the initial bacteria; +++: Inhibit the growth of initial bacteria completely; details: medium 7H9
[13] = system: E. coli O157; experiment: Antimicrobial spectrum, microporous dilution method; assay type: cell-based; design: key: -: no inhibitory activity; +: Inhibit the growth of less than 10% amount of the initial bacteria; ++: Inhibit the growth of less than 50% amount of the initial bacteria; +++: Inhibit the growth of initial bacteria completely; details: E. coli O157, medium LB
[14] = system: pepsin

Sequence of RNase (P61823 27-150): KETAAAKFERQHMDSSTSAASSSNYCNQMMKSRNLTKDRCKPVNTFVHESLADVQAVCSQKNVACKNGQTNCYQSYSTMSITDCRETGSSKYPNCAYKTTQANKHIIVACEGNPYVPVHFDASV
Sequence of proteinase K (P06873 106-384): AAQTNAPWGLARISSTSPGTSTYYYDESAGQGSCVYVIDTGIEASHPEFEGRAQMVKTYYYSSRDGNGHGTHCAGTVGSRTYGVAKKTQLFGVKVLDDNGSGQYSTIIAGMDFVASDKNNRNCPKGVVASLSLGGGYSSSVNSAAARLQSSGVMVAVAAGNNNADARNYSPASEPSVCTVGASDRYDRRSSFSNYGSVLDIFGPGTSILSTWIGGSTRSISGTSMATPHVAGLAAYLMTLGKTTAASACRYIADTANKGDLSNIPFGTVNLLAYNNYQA

CSCC[C@@H]1NC(=O)[C@H](C(C)C)NC(=O)[C@H](Cc2c[nH]c3ccccc23)NC(=O)[C@H](C(C)C)NC(=O)[C@H](C)NC(=O)[C@H](CS)NC(=O)[C@H](CC(N)=O)NC(=O)[C@H](Cc2ccccc2)NC(=O)CNC(=O)[C@H](Cc2ccc(O)cc2)NC(=O)CNC(=O)[C@H](Cc2ccccc2)NC(=O)[C@H](C(C)C)NC(=O)[C@H](Cc2ccc(O)cc2)NC(=O)[C@H](CS)NC(=O)[C@H](Cc2c[nH]c3ccccc23)NC1=O [pantocin wh-1] (cyclo(AVWVMWCYVFGYGFNC))
Inhibition activity [1]: +++ | relative light unit (RLU) value [2]: significant decrease | therapeutic effect compared with streptomycin [2]: did not exceed that of streptomycin | inhibitory activity after proteinase K [3]: inactivated completely | antibacterial activity after lysozyme ([4]; lysozyme): insensitive | Residual activity ([4]; lysozyme treatment, compared with antimicrobial activity before the treatment): 100% | antibacterial activity after DNase I ([5]; DNase I): insensitive | Residual activity ([5]; DNase treatment, compared with antimicrobial activity before the treatment): 100% | antibacterial activity after RNase A ([6]; RNase A): insensitive | Residual activity ([6]; RNase treatment, compared with antimicrobial activity before the treatment): 100% | Residual activity ([7]; Heat 50℃/ 30 min): 100% | Residual activity ([7]; Heat 100℃/ 30 min): 90% | Residual activity ([7]; Heat 121℃/ 15 min): 72% | retained activity ([7]; autoclaving at 121 °C for 30 min): 72% | heat stability ([7]; incubation at 100 °C for 30 min): heat stable | Inhibition activity [8]: - | Inhibition activity [9]: - | Inhibition activity [10]: - | Inhibition activity ([11]; S. suis, medium BHI): + (Inhibit the growth of less than 10% amount of the initial bacteria) | inhibitory activity ([11]; Streptococcus suis): partial inhibitory activity | Inhibition activity [12]: +++ | Inhibition activity [13]: - | activity after pepsin [14]: not completely inactivated
